The test system of assay [1] is kinase/NanoLuc® (Nluc) fusion proteins. In words: NanoBRET relative BRET signal of kinase tracers against a panel of kinase/NanoLuc fusions in live cells. It counts as cell-based. The settings on record: HEK293 cells, 2 hours, 0.5 uM CC-1804, CC-1852, or 1 uM CC-1294; compared to CC-1294. The procedure:
FIG. 1A-B. Summary of the BRET results generated with kinase tracers against a large panel of kinase/NanoLuc® fusions expressed in live cells. Assay signals were assessed by taking the ratio of BRET in the presence of tracer/no tracer control. Assays are categorized as follows: >3-fold signal (green cells), 2-3 fold signal (yellow cells), and 1.5-2 fold signal (red cells).
FIG. 1C-F. Individual BRET signals observed between the broad-spectrum kinase tracers and individual kinase/NanoLuc® fusions expressed in live cells. Assay signals were assessed by taking the ratio of BRET in the presence of tracer/no tracer control. Assays are categorized as follows: >3-fold signal (green cells), 2-3 fold signal (yellow cells), and 1.5-2 fold signal (red cells).
Experiments were conducted during development of embodiments herein to derive a comprehensive analysis of intracellular kinase target engagement using NanoBRET™ tracers derived from CC-1294 versus NanoBRET™ tracers derived from novel inhibitors. […] NanoBRET was measured on a Glomax® Discover plate reader. To determine relative BRET signals, BRET arising from the tracer was divided by BRET in the absence of tracer.
For orientation: Bioluminescence resonance energy transfer reports proximity on the nanometre scale.

Assay [2] concerns kinase/Nluc fusions.
Description: NanoBRET™ assays were run by competitive displacement of NanoBRET™ tracers in living HEK293 cells.
Values were measured by competitive displacement of NanoBRET™ tracers in living cells.
In wells of 96-well plates, 20,000 HEK293 cells per well were transfected with kinase/Nluc fusions expressed from pFN31K and pFN32K plasmids. Transfections were performed using 3:1 FuGENE HD:plasmid ratios. 24 hours post transfection, cells were treated for 2 hours in the presence of tracer and varying concentration of control inhibitor indicated. After incubation, NanoBRET™-TE substrate/inhibitor solution was added to a final concentration of 1×, and BRET was measured on a Glomax® Discover plate reader.
Assay [3] has as its system kinase/Nluc fusions. In words: NanoBRET fractional occupancy by competitive displacement of NanoBRET tracers in living HEK293 cells. It counts as cell-based. The settings on record: of the 200 kinases evaluated, 300 nM test compound, 2 hours, CC-1861 vs CTx (FIG. 5). The procedure:
Transfections were performed using 3:1 FuGENE HD:plasmid ratios.

Each structure is given as a SMILES string.

The results in this text go back to patent publication US12078634B2, “Broad spectrum kinase binding agents” (Promega Corporation, priority 2018, dated 2024).

Regarding `NC(=O)c1ccccc1Nc1nc(Nc2cccc(N3CCNCC3)c2)ncc1Cl` [CC-1852], in assay [1], the “target engagement/kinase profiling breadth (relative BRET signal, tracer / no tracer)” value is reported as “unexpectedly broad spectrum target engagement/kinase profiling”.

Regarding `NC(=O)c1ccccc1Nc1nc(Nc2ccc(N3CCNCC3)cc2)ncc1Cl` [CC-1861, 2-((5-chloro-2-((4-(piperazin-1-yl)phenyl)amino)pyrimidin-4-yl)amino)benzamide], in assay [2] (HEK293 cells, 2 hours, tracer plus varying concentration of inhibitor (FIG. 7)), the “inhibitor potency compared to CTx” value is reported as “increased inhibitor potency”. The “intracellular affinity compared to CTx-0294885” value in assay [2] (living HEK293 cells, four targets tested (FIG. 7)) is recorded as “stronger than CTx-0294885 for three of the four targets tested”.

On to `CNC(=O)c1ccccc1Nc1nc(Nc2ccc(N3CCNCC3)cc2)ncc1Cl` [CTx-0294885, 2-((5-chloro-2-((4-(piperazin-1-yl)phenyl)amino)pyrimidin-4-yl)amino)-N-methylbenzamide], for which, in assay [3], the “number of kinases that preferred the compound over the other” value worked out at 4.
